# Measurements: publication PMC10318897, “The structure of Leptospira interrogans GAPDH sheds light into an immunoevasion factor that can target the anaphylatoxin C5a of innate immunity” (Frontiers in Immunology, 2023)
# Columns and labels:
# LiGAPDH [1] = target: T1, LiGAPDH (Leptospira interrogans, UniProt Q72QM3); assay: NADH formation at […] nm, nonlinear fit; assay type: biochemical; conditions: substrate inhibition constant, 2 mM NAD+, 40 mM Tris-HCl pH 8.5, 2 mM EDTA, 25 °C
# T1 construct: gene gapA; full-length, N-terminal His6 tag and TEV site (pETM-11), expressed in E. coli Rosetta(DE3); homotetramer; 36648 Da subunit
# LiGAPDH [2] = target: T1, LiGAPDH; assay: X-ray crystal structure, […] Å; assay type: binding; conditions: active site, N-terminal Rossmann domain, all eight subunits
# LiGAPDH [3] = target: T1, LiGAPDH; assay: NADH formation at […] nm, initial rates, nonlinear fit; assay type: biochemical
# T1 sequence (Q72QM3 entry or part of it): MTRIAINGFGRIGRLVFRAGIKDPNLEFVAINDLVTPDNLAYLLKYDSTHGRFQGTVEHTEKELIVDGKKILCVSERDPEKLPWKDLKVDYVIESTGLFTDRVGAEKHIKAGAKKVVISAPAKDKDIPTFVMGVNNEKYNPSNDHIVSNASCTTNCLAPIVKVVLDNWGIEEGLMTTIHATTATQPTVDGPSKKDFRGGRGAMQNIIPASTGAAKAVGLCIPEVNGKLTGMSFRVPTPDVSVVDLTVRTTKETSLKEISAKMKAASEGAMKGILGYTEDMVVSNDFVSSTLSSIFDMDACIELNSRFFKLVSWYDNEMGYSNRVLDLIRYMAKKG
smiles,measurement,setting,value
O=C[C@H](O)COP(=O)(O)O [G3P],KSS,LiGAPDH [1]; 5 mM phosphate,2.0 ± 0.3 mM
NC(=O)c1ccc[n+]([C@@H]2O[C@H](COP(=O)(O)OP(=O)(O)OC[C@H]3O[C@@H](n4cnc5c(N)ncnc54)[C@H](O)[C@@H]3O)[C@@H](O)[C@H]2O)c1 [NAD^+],"X-ray crystal structure, 2.37 Å",LiGAPDH [2],The crystal structure corresponds to the holoenzyme with an NAD^+ molecule tightly bound into the active
O=P(O)(O)O [Pi],KSS,LiGAPDH [1]; 2 mM G3P,10 ± 1 mM
CCCCCCCCCCCCCCCc1cccc(O)c1C(=O)O [anacardic acid],Ki,LiGAPDH [3],41 ± 2 µM
COc1cc(/C=C/C(=O)CC(=O)/C=C/c2ccc(O)c(OC)c2)ccc1O [curcumin],Ki,LiGAPDH [3],59 ± 3 µM
